For test [1], the target named is T1, C-X-C chemokine receptor type 2 (Homo sapiens, UniProt P25025).
T1 sequence (P25025 whole entry): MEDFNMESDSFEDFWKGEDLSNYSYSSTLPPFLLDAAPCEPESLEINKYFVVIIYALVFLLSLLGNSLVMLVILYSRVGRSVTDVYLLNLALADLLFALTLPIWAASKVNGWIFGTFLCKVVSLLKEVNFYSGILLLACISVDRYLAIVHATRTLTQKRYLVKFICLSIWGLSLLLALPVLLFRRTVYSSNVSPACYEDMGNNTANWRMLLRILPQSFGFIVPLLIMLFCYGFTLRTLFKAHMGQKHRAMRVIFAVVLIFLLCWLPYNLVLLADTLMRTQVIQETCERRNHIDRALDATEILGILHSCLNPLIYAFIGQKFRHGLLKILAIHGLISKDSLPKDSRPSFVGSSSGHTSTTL
As to the kind of experiment: Displacement of IL8 from CXCR2 receptor.

The target in test [2] is T2, C-X-C chemokine receptor type 1 (Homo sapiens, UniProt P25024).
T2 sequence (P25024 whole entry): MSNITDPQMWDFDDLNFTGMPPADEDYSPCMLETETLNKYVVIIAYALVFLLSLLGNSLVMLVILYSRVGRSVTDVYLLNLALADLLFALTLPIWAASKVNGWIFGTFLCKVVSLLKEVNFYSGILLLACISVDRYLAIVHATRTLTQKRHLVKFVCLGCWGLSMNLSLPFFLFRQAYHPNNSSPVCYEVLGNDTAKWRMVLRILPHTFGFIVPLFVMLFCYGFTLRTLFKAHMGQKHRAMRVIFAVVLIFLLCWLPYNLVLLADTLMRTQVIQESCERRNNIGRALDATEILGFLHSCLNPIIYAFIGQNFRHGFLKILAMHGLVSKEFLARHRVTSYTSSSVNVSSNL
As to the kind of experiment: Displacement of IL8 from CXCR1 receptor.

Test [3] addresses T1, C-X-C chemokine receptor type 2. Briefly: Displacement of [125I]CXCL1 from CXCR2 receptor in human PMN assessed as myeloperoxidase release.
For test [4], the target named is T2, C-X-C chemokine receptor type 1. Briefly: Displacement of [125I]CXCL8 from CXCR1 receptor in human PMN assessed as myeloperoxidase release.

As to `CC[C@@H](Nc1nsnc1Nc1cccc(C(=O)N(C)C)c1O)c1cc(C)co1`, the Ki in test [1] turned out to be 2280 nM.

Turning to `Cc1ccc([C@H](Nc2nsnc2Nc2cccc(C(=O)N(C)C)c2O)C(F)(F)F)o1`, the values for the inhibition constant (Ki) in test [1] and in test [2] were 10000 nM and 53 nM, respectively.

For the compound `Cc1ccc([C@H](Nc2nsnc2Nc2cccc(C(=O)N(C)C)c2O)C(C)(C)C)o1`, the Ki in test [1] was 91 nM. In addition, in test [3], the IC50 is 21 nM.

For `CC[C@@H](Nc1nsnc1Nc1cccc(C(=O)N(C)C)c1O)c1cc(F)cc(F)c1`, the inhibition constant (Ki) in test [1] amounted to 4100 nM.

Regarding `CN(C)C(=O)c1cccc(Nc2nsnc2N[C@@H](c2ccccc2)C2CC2)c1O`, the inhibition constant (Ki) in test [1] was 2030 nM. Against the preceding compound, the Ki is about 2-fold lower.

Turning to `Cc1ccc([C@H](Nc2nsnc2Nc2cccc(C(=O)N(C)CCC#N)c2O)C(C)(C)C)o1`, the inhibition constant Ki in test [1] amounted to 114 nM; in test [2], 13 nM.

`CC(C)c1coc([C@H](Nc2nsnc2Nc2cccc(C(=O)N(C)CCC#N)c2O)C(C)(C)C)c1` registered an inhibition constant Ki in test [1] of 79 nM.

Regarding `CN(CCC#N)C(=O)c1cccc(Nc2nsnc2N[C@@H](c2ccco2)C(C)(C)C)c1O`, the Ki in test [1] stood at 44 nM.

On to `Cc1ccc([C@H](Nc2nsnc2Nc2cccc(C(=O)N(C)C)c2O)C(C)C)s1`, for which, in test [1], the inhibition constant (Ki) was 1300 nM.

Compound `CC[C@@H](Nc1nsnc1Nc1ccc(C(F)(F)F)c(C(=O)N(C)C)c1O)c1ccc(C)o1` returned a Ki in test [1] of 749 nM.

The compound `C[C@H](Nc1nsnc1Nc1cccc(C(=O)N(C)C)c1O)C(C)(C)C` gave an inhibition constant (Ki) in test [1] of 10000 nM.

Take `CC[C@@H](Nc1nsnc1Nc1cccc(C(=O)N(C)C)c1O)c1ccccc1`: in test [1], affinity was put at a Ki of 5110 nM.

Regarding `CN(C)C(=O)c1cccc(Nc2nsnc2N[C@@H](c2ccc3c(c2)OCCO3)C(C)(C)C)c1O`, in test [1], the Ki amounted to 10000 nM.

`CN(C)C(=O)c1cccc(Nc2nsnc2N[C@@H](c2cccc(F)c2)C(C)(C)C)c1O`: the Ki is 1300 nM in test [1] and 78 nM in test [2].

`CN(C)C(=O)c1cccc(Nc2nsnc2N[C@@H](c2ccco2)C(C)(C)C)c1O`: affinity in test [1] was put at a Ki of 381 nM. This lies in the sub-micromolar range.

For `Cc1ccc([C@H](Nc2nsnc2Nc2cccc(C(=O)N(C)C)c2O)C(C)C)o1`, the Ki is 2400 nM in test [1] and 15 nM in test [2]. The IC50 was determined as 36 nM in test [3] and 3910 nM in test [4].

Take `CN(C)C(=O)c1cccc(Nc2nsnc2NC(c2ccccc2)C(F)(F)F)c1O` (stereo not drawn): the inhibitory constant (Ki) in test [1] is 4300 nM; in test [2], 36 nM.

`CN(C)C(=O)c1cccc(Nc2nsnc2N[C@@H](c2cc3ccccc3o2)C(C)(C)C)c1O` showed an inhibition constant (Ki) in test [1] of 2360 nM.

For `CC[C@@H](Nc1nsnc1Nc1cccc(C(=O)N(C)C)c1O)c1ccc(C)o1`, affinity in test [1] was put at a Ki of 3000 nM.

The compound `CN(C)C(=O)c1cccc(Nc2nsnc2N[C@@H](c2ccc3c(c2)CCC3)C(C)(C)C)c1O` registered an inhibitory constant (Ki) in test [1] of 10000 nM.

In test [1], `Cc1ccc([C@H](Nc2nsnc2Nc2cccc(C(=O)N3CCOCC3)c2O)C(C)(C)C)o1` registered an inhibition constant (Ki) of 1270 nM.

For `Cc1ccc([C@H](Nc2nsnc2Nc2ccc(C(F)(F)F)c(C(=O)N(C)C)c2O)C(C)(C)C)o1`, the results for the Ki in test [1] and in test [2] were 168 nM and 38 nM, respectively.

As for `CN(C)C(=O)c1cccc(Nc2nsnc2N[C@@H](c2ccc3c(c2)OCO3)C(C)(C)C)c1O`, the values for the Ki in test [1] and in test [2] were 330 nM and 52 nM, respectively.

(Values after ChEMBL document CHEMBL1153271, “3,4-Diamino-1,2,5-thiadiazole as potent and selective CXCR2 antagonists” (Bioorg Med Chem Lett, 2009).)
